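Cultured in 96-well plates, cells were exposed to test compound for 48 hours across five concentrations. TGI: concentration producing complete growth inhibition.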
Columns and labels:
Assay in all cases: NCI-60 cell line screen, 48 h
[1] = tested on: 786-0 renal
[2] = tested on: A498 renal
[3] = tested on: A549 NSCLC
[4] = tested on: ACHN renal
[5] = tested on: CAKI-1 renal
[6] = tested on: CCRF-CEM leukemia
[7] = tested on: DLD-1 colon
[8] = tested on: DMS 114 small cell lung
[9] = tested on: DMS 273 small cell lung
[10] = tested on: EKVX NSCLC
[11] = tested on: HCC-2998 colon
[12] = tested on: HCT-116 colon
[13] = tested on: HCT-15 colon
[14] = tested on: HL-60(TB) leukemia
[15] = tested on: HOP-92 NSCLC
[16] = tested on: HT29 colon
[17] = tested on: IGROV1 ovarian
[18] = tested on: K-562 leukemia
[19] = tested on: KM20L2 colon
[20] = tested on: LOX IMVI melanoma
[21] = tested on: LXFL 529 NSCLC
[22] = tested on: M14 melanoma
[23] = tested on: M19-MEL melanoma
[24] = tested on: MALME-3M melanoma
[25] = tested on: MOLT-4 leukemia
[26] = tested on: NCI-H226 lung
[27] = tested on: NCI-H23 lung
[28] = tested on: NCI-H460 lung
[29] = tested on: NCI-H522 lung
[30] = tested on: OVCAR-3 ovarian
[31] = tested on: OVCAR-4 ovarian
[32] = tested on: OVCAR-5 ovarian
[33] = tested on: OVCAR-8 ovarian
[34] = tested on: RPMI-8226 leukemia
[35] = tested on: RXF 393 renal
[36] = tested on: SF-268 CNS
[37] = tested on: SF-295 CNS
[38] = tested on: SF-539 CNS
[39] = tested on: SK-MEL-2 melanoma
[40] = tested on: SK-MEL-28 melanoma
[41] = tested on: SK-MEL-5 melanoma
[42] = tested on: SN12C renal
[43] = tested on: SNB-19 CNS
[44] = tested on: SNB-75 CNS
[45] = tested on: SNB-78 CNS
[46] = tested on: SR leukemia
[47] = tested on: SW-620 colon
[48] = tested on: TK-10 renal
[49] = tested on: U251 CNS
[50] = tested on: UACC-257 melanoma
[51] = tested on: UACC-62 melanoma
[52] = tested on: UO-31 renal
[53] = tested on: XF 498 CNS
[54] = tested on: COLO 205 colon
[55] = tested on: HOP-18 NSCLC
[56] = tested on: HOP-62 NSCLC
[57] = tested on: KM12 colon
[58] = tested on: SK-OV-3 ovarian

`CCOc1ccccc1NC(=O)CC1C(=O)Nc2ccccc2S1=O` (stereo unspecified) was tested, and the TGI [1] was greater than 100 µM, the TGI [2] was greater than 100 µM and the TGI [3] was greater than 100 µM. The TGI [4] was greater than 100 µM, the TGI [5] was greater than 100 µM and the TGI [6] was greater than 100 µM. It also gave a TGI [7] greater than 100 µM, a TGI [8] greater than 100 µM and a TGI [9] greater than 100 µM. The TGI [10] was greater than 100 µM, the TGI [11] was greater than 100 µM and the TGI [12] was greater than 100 µM. For the same molecule, the TGI [13] was greater than 100 µM, the TGI [14] was greater than 100 µM and the TGI [15] was greater than 100 µM. It also gave a TGI [16] greater than 100 µM, a TGI [17] greater than 100 µM and a TGI [18] greater than 100 µM. For the same molecule, the TGI [19] was greater than 100 µM, the TGI [20] was greater than 100 µM and the TGI [21] was greater than 100 µM. The TGI [22] was greater than 100 µM, the TGI [23] was greater than 100 µM and the TGI [24] was greater than 100 µM. The TGI [25] was 39.5 µM, the TGI [26] was greater than 100 µM and the TGI [27] was greater than 100 µM. For the same molecule, the TGI [28] was greater than 100 µM, the TGI [29] was greater than 100 µM and the TGI [30] was greater than 100 µM. The TGI [31] was greater than 100 µM, the TGI [32] was greater than 100 µM and the TGI [33] was greater than 100 µM. The TGI [34] was 46.1 µM, the TGI [35] was greater than 100 µM and the TGI [36] was greater than 100 µM. It also gave a TGI [37] greater than 100 µM, a TGI [38] greater than 100 µM and a TGI [39] greater than 100 µM. For the same molecule, the TGI [40] was greater than 100 µM, the TGI [41] was greater than 100 µM and the TGI [42] was greater than 100 µM. For the same molecule, the TGI [43] was greater than 100 µM, the TGI [44] was greater than 100 µM and the TGI [45] was greater than 100 µM. The TGI [46] was greater than 100 µM, the TGI [47] was greater than 100 µM and the TGI [48] was greater than 100 µM. The TGI [49] was greater than 100 µM, the TGI [50] was greater than 100 µM and the TGI [51] was greater than 100 µM. The TGI [52] was greater than 100 µM and the TGI [53] was greater than 100 µM.

For `CN1C(=O)CC(c2cccc(C3CC(=O)N(C)C3=O)n2)C1=O` (stereo unspecified), the TGI [1] was greater than 100 µM, the TGI [2] was greater than 100 µM and the TGI [3] was greater than 100 µM. The TGI [4] was greater than 100 µM, the TGI [5] was greater than 100 µM and the TGI [6] was greater than 100 µM. For the same molecule, the TGI [54] was greater than 100 µM, the TGI [7] was greater than 100 µM and the TGI [8] was greater than 100 µM. For the same molecule, the TGI [9] was greater than 100 µM, the TGI [10] was greater than 100 µM and the TGI [11] was greater than 100 µM. For the same molecule, the TGI [12] was greater than 100 µM, the TGI [13] was greater than 100 µM and the TGI [14] was greater than 100 µM. For the same molecule, the TGI [55] was greater than 100 µM, the TGI [56] was greater than 100 µM and the TGI [15] was greater than 100 µM. The TGI [16] was greater than 100 µM, the TGI [17] was greater than 100 µM and the TGI [18] was greater than 100 µM. It also gave a TGI [57] greater than 100 µM, a TGI [19] greater than 100 µM and a TGI [20] greater than 100 µM. The TGI [21] was greater than 100 µM, the TGI [22] was greater than 100 µM and the TGI [23] was greater than 100 µM. It also gave a TGI [24] greater than 100 µM, a TGI [25] greater than 100 µM and a TGI [26] greater than 100 µM. It also gave a TGI [27] greater than 100 µM, a TGI [28] greater than 100 µM and a TGI [29] greater than 100 µM. It also gave a TGI [30] greater than 100 µM, a TGI [31] greater than 100 µM and a TGI [32] greater than 100 µM. The TGI [33] was greater than 100 µM, the TGI [35] was greater than 100 µM and the TGI [36] was greater than 100 µM. It also gave a TGI [37] greater than 100 µM, a TGI [38] greater than 100 µM and a TGI [39] greater than 100 µM. It also gave a TGI [40] greater than 100 µM, a TGI [41] greater than 100 µM and a TGI [58] greater than 100 µM. It also gave a TGI [42] greater than 100 µM, a TGI [43] greater than 100 µM and a TGI [44] greater than 100 µM. The TGI [45] was greater than 100 µM, the TGI [46] was greater than 100 µM and the TGI [47] was greater than 100 µM. It also gave a TGI [48] greater than 100 µM, a TGI [49] greater than 100 µM and a TGI [50] greater than 100 µM. The TGI [51] was greater than 100 µM and the TGI [52] was greater than 100 µM.

`CC(C)(C)NNC(=O)/C(=C/c1ccc([N+](=O)[O-])cc1)NC(=O)c1ccccc1` showed a TGI [1] greater than 100 µM, a TGI [2] greater than 100 µM and a TGI [3] greater than 100 µM. It also gave a TGI [4] greater than 100 µM, a TGI [5] greater than 100 µM and a TGI [6] of 99.1 µM. For the same molecule, the TGI [54] was 79.2 µM, the TGI [7] was greater than 100 µM and the TGI [8] was 35.9 µM. For the same molecule, the TGI [9] was 80 µM, the TGI [10] was greater than 100 µM and the TGI [11] was greater than 100 µM. The TGI [13] was greater than 100 µM, the TGI [14] was greater than 100 µM and the TGI [55] was greater than 100 µM. It also gave a TGI [56] greater than 100 µM, a TGI [15] greater than 100 µM and a TGI [16] greater than 100 µM. The TGI [17] was greater than 100 µM, the TGI [18] was greater than 100 µM and the TGI [57] was greater than 100 µM. The TGI [19] was greater than 100 µM, the TGI [20] was 37.2 µM and the TGI [21] was greater than 100 µM. For the same molecule, the TGI [22] was greater than 100 µM, the TGI [23] was greater than 100 µM and the TGI [24] was greater than 100 µM. The TGI [25] was greater than 100 µM, the TGI [26] was 96.5 µM and the TGI [27] was greater than 100 µM. For the same molecule, the TGI [28] was greater than 100 µM, the TGI [29] was 73.3 µM and the TGI [30] was greater than 100 µM. The TGI [31] was greater than 100 µM, the TGI [32] was greater than 100 µM and the TGI [33] was greater than 100 µM. It also gave a TGI [34] greater than 100 µM, a TGI [35] greater than 100 µM and a TGI [36] greater than 100 µM. The TGI [37] was greater than 100 µM, the TGI [38] was greater than 100 µM and the TGI [39] was greater than 100 µM. It also gave a TGI [40] greater than 100 µM, a TGI [41] greater than 100 µM and a TGI [58] greater than 100 µM. The TGI [42] was greater than 100 µM, the TGI [43] was greater than 100 µM and the TGI [44] was greater than 100 µM. The TGI [45] was greater than 100 µM, the TGI [46] was 46.4 µM and the TGI [48] was greater than 100 µM. It also gave a TGI [49] greater than 100 µM, a TGI [50] greater than 100 µM and a TGI [51] greater than 100 µM. It also gave a TGI [52] greater than 100 µM and a TGI [53] greater than 100 µM.

`CC(C)/C=C1\CCC(CN2CCCC2)C1=O` (stereo unspecified) showed a TGI [1] of 4.8 µM, a TGI [2] greater than 59 µM and a TGI [3] of 20.1 µM. For the same molecule, the TGI [4] was 32.2 µM, the TGI [5] was 10.2 µM and the TGI [6] was 17.3 µM. For the same molecule, the TGI [54] was 18.1 µM, the TGI [7] was 10.4 µM and the TGI [8] was 34.5 µM. It also gave a TGI [10] of 40 µM, a TGI [11] of 34.2 µM and a TGI [12] of 20.9 µM. It also gave a TGI [13] of 18.3 µM, a TGI [14] of 14.4 µM and a TGI [55] of 17.3 µM. The TGI [56] was greater than 100 µM, the TGI [15] was 36.1 µM and the TGI [16] was 25.6 µM. It also gave a TGI [17] greater than 62.5 µM, a TGI [18] of 11.9 µM and a TGI [57] of 23.1 µM. For the same molecule, the TGI [19] was 36 µM, the TGI [20] was 42.3 µM and the TGI [21] was 10.1 µM. For the same molecule, the TGI [22] was 24.2 µM, the TGI [23] was greater than 60.4 µM and the TGI [24] was 17.1 µM. It also gave a TGI [25] of 14.9 µM, a TGI [26] of 49.6 µM and a TGI [27] of 33.8 µM. It also gave a TGI [28] greater than 79.7 µM, a TGI [29] of 3.71 µM and a TGI [30] of 31.8 µM. For the same molecule, the TGI [31] was 32.5 µM, the TGI [32] was 35.2 µM and the TGI [33] was 16.5 µM. It also gave a TGI [34] of 3.5 µM, a TGI [35] of 29.7 µM and a TGI [36] of 43.6 µM. The TGI [37] was greater than 94.5 µM, the TGI [38] was 35.6 µM and the TGI [39] was 37.7 µM. It also gave a TGI [40] of 32.9 µM, a TGI [41] of 33.2 µM and a TGI [58] greater than 100 µM. The TGI [42] was 34.8 µM, the TGI [43] was greater than 64.2 µM and the TGI [45] was 51.2 µM. It also gave a TGI [46] of 8.09 µM, a TGI [47] of 7.94 µM and a TGI [48] of 24.7 µM. For the same molecule, the TGI [49] was 21 µM, the TGI [50] was 33.9 µM and the TGI [51] was 47.4 µM. It also gave a TGI [52] of 32.5 µM and a TGI [53] of 31.5 µM.

Reference: PubChem BioAssay (NCI)
